Laboratory results: patent publication US9073820B2, “Pharmaceutical compositions comprising napthamides” (OREGON HEALTH & SCIENCE UNIVERSITY, priority 2011, dated 2015)

How the values were obtained:
[1] = system: CREB-mediated gene transcription; test: CREB reporter (pCRE-RLuc) assay in HEK 293T cells, forskolin-stimulated; assay type: cell-based
Protocol: HEK293T cells in a 10-cm plate were transfected with pCRE-RLuc (6.0 μg) using Lipofectamine™ 2000 (Invitrogen, Carlsbad, Calif.) according to manufacturer's protocol. After 3 h, the transfected cells were collected and replated into 96-well plates (1-2×10^4 cells/well). The cells were allowed to attach to the bottom of the wells for overnight, when compounds of different concentrations were added to the cells. Forskolin (final concentration of 10 μM, LC Laboratories, Woburn, Mass.) was added 30 min after the addition of the compounds. The cells were then incubated at 37° C. for 5 h. The media in the wells were removed and the cells were then lysed in 30 μL of 1×Renilla luciferase lysis buffer (Promega, Madison, Wis.). To measure Renilla luciferase activity, five μL of the lysate was combined with 30 μL of benzyl-coelenterazine (Nanolight, Pinetop, Ariz.) solution in PBS (pH 7.4, 10 μg/mL). The sample protein concentration was determined by Dye Reagent Concentrate (Bio-Rad, Hercules, Calif.). The Renilla luciferase activity was normalized to protein content in each well and expressed as relative luciferase unit/μg protein (RLU/μg protein). The IC50 was derived from non-linear regression analysis of the RLU/μg protein-concentration curve in Prism 5.0 (La Jolla, Calif.).

[2] = system: MDA-MB-468 cells (human breast cancer cells); test: MTT cell growth inhibition, 72 h, MDA-MB-468; assay type: cell-based; details: MDA-MB-468, 72 h, read-out: MDA-MB-468 (GI50)
Protocol: (§1) A549 (human lung cancer cells), MCF-7 (human breast cancer cells), MDA-MB-231 (human breast cancer cells) and MDA-MB-468 cells (human breast cancer cells) were maintained in Dulbecco's modified Eagle medium (DMEM, Invitrogen, Carlsbad, Calif.) supplemented with 10% (v/v) fetal calf serum (Sigma, St. Louis, Mo.), 10 μg/mL penicillin and 10 μg/mL streptomycin (Invitrogen, Carlsbad, Calif.) at 37° C. under 5% CO2. On the day of experiment, different concentrations of the drugs (final concentration 10^−8-10^−4 M) in duplicates were added to the cells and the cells were further incubated for 72 h. Then, the number of live cells was quantified by 3-(4,5-dimethyl-2-thiazolyl)-2,5-diphenyl-2H-tetrazolium bromide (MTT reagent, Sigma, St. Louis, Mo.).
(§2) The amount of reduced MTT formazan generated by live cells was determined by its absorbance at 570 nm after subtracting the background absorbance at 690 nm. The percent of cell growth was expressed as (A570(treated)−A570(initial))/(A570(vehicle treated)−A570(initial))*100, where A570(initial) represents initial cell population when drugs are added. The GI50 were derived from non-linear regression analysis of the dose-response curve using Prism 4.0 (GraphPad). […] Data were presented as mean±SD of at least two measurements in duplicates unless noted.

[3] = system: MCF-7 (human breast cancer cells); test: MTT cell growth inhibition, 72 h, MCF-7; assay type: cell-based; details: MCF7, 72 h, read-out: MCF-7 (GI50)
Protocol: as §1, §2

[4] = system: MDA-MB-231 (human breast cancer cells); test: MTT cell growth inhibition, 72 h, MDA-MB-231; assay type: cell-based; details: MDA-MB-231, 72 h, read-out: MDA-MB-231 (GI50)
Protocol: as §1, §2

[5] = molecular target: T1, KIX-KID (Homo sapiens, UniProt Q92793); test: KIX-KID inhibition, split Renilla luciferase complementation (RLucC-KIX and KID-RLucN); assay type: binding; details: 4° C., 24 h
T1 construct: made in house
T1 sequence (Q92793 587-666 limits assumed): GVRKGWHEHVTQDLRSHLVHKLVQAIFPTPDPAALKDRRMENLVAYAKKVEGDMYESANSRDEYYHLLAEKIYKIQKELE
Protocol: RLucC-KIX (15 ng) and KID-RLucN-containing cell lysates (0.5 mg) were mixed together in Renilla luciferase lysis buffer (Promega, Madison, Wis.) in the presence of different concentrations of compounds. The final volume of the incubation mixture is 30 μL. The mixture was incubated at 4° C. for 24 h. Then Renilla luciferase activity was measured by combining 5 μL of incubation mixture with 30 μL of coelenterazine solution in PBS (pH 7.4, 10 μg/mL).

[6] = system: A549 (human lung cancer cells); test: MTT cell growth inhibition, 72 h, A549; assay type: cell-based; details: A549, 72 h, read-out: A549 (GI50)
Protocol: as §1, §2

Q: How did the “CREB-mediated gene transcription in HEK 293T cells (in words)” value ([1]; HEK 293T cells) turn out when `NCCCOc1cc2ccccc2cc1C(=O)NCCCOc1cc2ccccc2cc1C(=O)Nc1ccc(Cl)cc1O` [Compound 4] was run?
A: inhibited

Q: What about the IC50 ([1]; Homo sapiens, HEK-293T, 5 h, read-out: CREB reporter inhibition (IC50)) of the same compound?
A: 2220 ± 380 nM

Q: And the GI50 [2]?
A: 210 ± 71 nM

Q: And the GI50 [3]?
A: 140 ± 29 nM

Q: What about the GI50 [4] of the same compound?
A: 230 ± 6 nM

Q: And the IC50 [5]?
A: 2540 ± 280 nM

Q: And the GI50 [6]?
A: 300 nM
